Structures are written as SMILES.

The subject of series [1] is IFN-α2 mRNA, normal PBMCs. The experiment in a line: Agonist induced IFN-α2 mRNA in PBMCs from healthy donors (qRT-PCR). The following applies: LMW poly(I:C), serial dilutions. The class given is cell-based, human. The text has this:
(§1) To determine if inhibition of IKKε and/or TBK1 modulates nucleic acid agonist induced gene expression, high molecular weight poly(I:C) (MDA5 agonist) and low weight poly(I:C) (RIG-I agonist) were electroporated into human peripheral blood mononuclear cells (PBMCs) obtained from normal donors, or low molecular weight Poly(I:C) was electroporated into PBMCs from donors that have Systemic Lupus Erythematosus (SLE). Induction of IFN-α2, IFN-β, and BLyS mRNA production was monitored by qRT-PCR.
(§2) Human PBMCs were collected from healthy donors using routine laboratory procedures. PBMCs from SLE patients were purchased from Astarte Biologics (Redmond, Wash.). The PBMCs were electroporated using Nucleofector® Kit V (Lonza, Walkersville, Md.) with 0.4 ug/mL of high molecular weight poly (I:C) (InvivoGen, San Diego, Calif.) or 0.4 ug/mL low molecular weight poly (I:C) (InvivoGen, San Diego, Calif.) and seeded into wells containing serial dilutions of Example Compound 5 (0.1% final DMSO concentration). […] RNA was quantitated using Quant-iT™ RiboGreen® RNA Assay Kit (Invitrogen, Carlsbad, Calif.). Reverse transcription and real-time PCR were performed using the QuantiTect Probe RT-PCR Kit (Qiagen, Germantown, Md.) and the 7300 Real-Time PCR System (Applied Biosytems, Foster City, Calif.). […]
For orientation: Real-time PCR tracks product formation cycle by cycle.

Series [2] concerns collagen-induced arthritis. The experiment in a line: Collagen-induced arthritis model in mice. The conditions noted are these: for day symptoms of arthritis appeared: days 18-34. The class given is in vivo. The procedure:
Male DBA/1 mice were injected with 150 μL of […] bovine type II collagen in Freund's complete adjuvant on days 0 and 21. On days 18 through 34, 100 mg/kg or 150 mg/kg Example Compound 5 was administered orally each day. Also on days 18 through 34, all mouse paws were given a clinical score on a scale of 0-5, based upon the severity of erythema and swelling. Body weights were measured every other day beginning on day 18. Mice were euthanized on day 34, livers were weighed and paws frozen in preparation for subsequent histopathology evaluation.

Series [3] relates to BLyS mRNA, normal PBMCs. The series is described as follows: Agonist induced BLyS mRNA in PBMCs from healthy donors (qRT-PCR). In kind it is cell-based, human. The following applies: LMW poly(I:C), serial dilutions.
Text: as §1, §2

The subject of series [4] is RANTES production, human fibroblast-like synoviocytes (HFLS-RA). The series is described as follows: Inhibition of RANTES production by HFLS-RA cells induced with Poly(I:C). The class given is cell-based. The conditions noted are these: Poly(I:C) induction. The procedure:
(§3) HFLS cells (HFLS-RA) isolated from patients with rheumatoid arthritis were obtained from Cell Applications, Inc. (San Diego, Calif.). Cells were seeded in synoviocyte growth medium (Cell Applications, Inc., San Diego, Calif.) and allowed to grow overnight. The following day, media was replaced and cells were treated with varying concentrations of selected compounds according to Formula I (e.g., Example Compound 5) (0.1% final DMSO concentration). Two hours later, cells were induced with 50 µg/mL Poly(I:C) (Sigma-Aldrich, St. Louis, Mo.). Supernatants were collected 20 hours post-induction and used to monitor RANTES and IP-10 levels using DuoSet ELISA kits (Human CXCL10/IP-10 DuoSet & Human CCL5/RANTES DuoSet; R&D Systems, Inc., Minneapolis, Minn.).

In series [5] the test system is IKKε-mediated phosphorylation of IRF3. The experiment in a line: In-situ phosphorylation of IRF3 (pIRF3 Ser396 ELISA) in HEK293T cells cotransfected with IRF3 and IKKε. In kind it is cell-based. The following applies: Homo sapiens, HEK-293T; HEK293T cells, 20 hours, text bins; read-out: IC50 for inhibition of the in-situ IKKε-mediated phosphorylation of IRF3. Summed up: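 For the IRF3 ELISA, HEK293T cells cotransfected with IRF3 and IKKε were replated at 20,000/well and treated 20 h. Phospho-Ser396 IRF3 was measured by ELISA and normalised to DMSO, with viability checked by CellTiter-Glo. For IRF7, cells transfected with IRF7 and TBK1 were treated overnight, and pSer477/Ser479 IRF7 was detected by Western blot.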
A general note: In an ELISA, binding on a coated surface is turned into a signal by an enzyme label.

For series [6], the system named is IP-10 production, human fibroblast-like synoviocytes (HFLS-RA). The series is described as follows: Inhibition of IP-10 production by HFLS-RA cells induced with Poly(I:C). The class given is cell-based. The conditions noted are these: Poly(I:C) induction. The procedure: as §3
Series [7] has as its system IFN-β1 mRNA, normal PBMCs. The series is described as follows: Agonist induced IFN-β1 mRNA in PBMCs from healthy donors (qRT-PCR). In kind it is cell-based, human. The following applies: LMW poly(I:C), serial dilutions.
Text: as §1, §2

The test system of series [8] is insulin-stimulated glucose uptake, 3T3-L1 adipocytes. The series is described as follows: Glucose uptake assay using differentiated 3T3-L1 adipocytes. The following applies: palmitic acid 48 hours. The class given is cell-based, Murine. The procedure:
To determine if IKK/TBK1 inhibitors prevent fatty acid induced insulin resistance in 3T3-L1 adipocytes, insulin-stimulated glucose uptake in the presence of compounds according to Formula I was monitored.
Murine 3T3-L1 cells were differentiated to adipocytes in 96-well plates by incubating for 2 days in adipogenic cocktail (10 ug/ml insulin, 115 ug/ml isobutylmethylxanthine, 1 uM dexamethasone) followed by incubation in insulin-supplemented medium for 2 days and complete media for an additional 5-10 days. Adipocytes were treated with BSA-complexed palmitic acid and a compound according to Formula I for 48 hours. Following free fatty acid treatment, adipoctyes were insulin-deprived in serum-free media for 2 hours. Subsequently, the media was replaced with KRH buffer containing a compound according to Formula I and 300 nM insulin for 15-20 minutes. [^14C]-labeled 2-deoxyglucose was then added for 15 minutes. Cells were thoroughly washed with ice-cold PBS, and intracellular [^14C]-2-deoxyglucose was measured in cell lysates by scintillation.

In the case of `N#Cc1cc(-c2ccnc(Nc3ccc(N4CCOCC4)cc3)n2)ccc1OC1CCOCC1` [Example 5, 5-(2-{[4-(Morpholin-4-yl)phenyl]amino}pyrimidin-4-yl)-2-(tetrahydro-2H-pyran-4-yloxy)benzaonitrile], the “induction of IFN-α2 mRNA” value in series [1] is reported as “potently inhibited”. Also, the “day symptoms were present in all mice” value in series [2] (100 mg/kg orally) and in series [2] (150 mg/kg orally) was at most 30 days each time. Also, the “inhibition of AUC of clinical score as a function of time” value in series [2] (100 mg/kg orally) was found to be 29%; in series [2] (150 mg/kg orally), 45%. The “inhibition of body weight loss, day 18-34” value was found to be 23% in series [2] (100 mg/kg orally) and 42% in series [2] (150 mg/kg orally). The “reduction of magnitude of clinical score on day 34” value in series [2] (100 mg/kg orally) amounted to 20%; in series [2] (150 mg/kg orally), 38%. Also, the “day symptoms of arthritis appeared” value in series [2] (100 mg/kg orally each day) was found to be 23 days; in series [2] (150 mg/kg orally each day), 24 days. Also, in series [2] (100 and 150 mg/kg orally), the “effect in reducing collagen-induced arthritis” value was “significant, dose-dependent effects”. Also, the liver weights result in series [2] (any treatment (100 and 150 mg/kg), day 34) was “No differences”. In series [2] (both doses (100 and 150 mg/kg)), the “increases in erythema and swelling (cumulative clinical score)” value was “significantly slower”. In addition, the “induction of BLyS mRNA” value in series [3] is “potently inhibited”. Further, the IC50 (commonly the concentration needed to halve the response being measured) in series [4] is about 60 nM; in series [5], under 100 nM; in series [6], about 60 nM. The “induction of IFN-β1 mRNA” value in series [7] was “potently inhibited”. For the same molecule, the “effect on free fatty acid inhibition of insulin-stimulated glucose uptake” value in series [8] is given as “reverse the inhibitory effects of free fatty acid on insulin-stimulated glucose uptake”.

The record behind these values is patent publication US20150352108A1, “AMINO-PYRIMIDINE COMPOUNDS AS INHIBITORS OF TBK1 AND/OR IKK EPSILON” (Alzheimer's Institute of America, priority 2009, published 2015).
